From patent publication US20250281413A1, “PHARMACEUTICAL COMPOSITION” (Novartis AG, priority 2021, published 2025)
Converted amounts (≈) assume the structure as drawn.

How the values were obtained:
Assay type in all cases: physicochemical
[1] = Dissolution rate of capsules filled with granule particles (paddle 50 rpm); settings: pH 3, 50 mg dose in 900 mL
Protocol: Variant P7 was selected as the optimized granule composition in terms of copovidone and SLS ratio, thus the amount to be sprayed on the inert substrate (carrier particle) allow a drug load of 20%, based on the total weight of the granule particle, in a reasonable processing time. The dissolution performance of the different variant of granule particle compositions was evaluated to ensure the dissolution profile was in a good range. The dissolution rate is measured by conventional method (paddle method according to Pharm. Eur. 2.9.3 “Dissolution Test for Solid Dosage Forms” or US Pharmacopeia <711> “Dissolution” or Japanese Pharmacopiea <6.10> “Dissolution Test), as it can be seen in FIG. 1 and FIG. 2, by adding the granule particles prepared as mentioned in Table 1 into capsules (e.g. hard gelatin capsule). […] Some of the tested capsules comprising the above mentioned granule particles, the disintegration and dispersion of the content was delayed, leading to a delayed dissolution rate (DR) profile at paddle 50 rpm. […]
In order to have a better understanding of the formulation/pH profile, the dissolution rate profiles of the formulations described in Table 2 and Table 3 were measured at pH 2, pH 3, pH 4.5 and pH 6.8. […]

[2] = Particle size of wet-media milled suspension by Photon Correlation Spectroscopy (PCS); settings: Example 7
Description: The following examples illustrate the invention and provide support for the disclosure of the present invention without limiting the scope of the invention. • Analytical Centrifugation (AC), e.g., LUMiSizer, LUM GmbH Germany, SEPView 6.1.2570.2022. Wet dispersion method using purified water solution for dilution of suspension to appropriate attenuation level with about 10 to 70% transmission of first measurement profile. The reported results for X10, X50, X90 are intensity weighted. • Photon Correlation Spectroscopy (PCS), e.g., Zetasizer Nano ZS, Malver Panalytical Ltd., UK, Version 7.3. Wet dispersion method using 0.1 mM NaCl solution (in purified water) for dilution of suspension to appropriate attenuation level with about 2 to 9 attenuator index. The reported results for Xmean are intensity weighted. In particular, the attenuator index is 5. Preferably, the measurement is carried at 25° C. […]

[3] = pH dependent solubility of Compound (A)

Q: Which “percent of dose dissolved at plateau” value [1] does the source give for `C=CC(=O)N(C)CCOc1c(N)ncnc1-c1cc(F)cc(NC(=O)c2ccc(C3CC3)cc2F)c1C` [Compound (A), N-(3-(6-amino-5-(2-(N-methylacrylamido)ethoxy)pyrimidin-4-yl)-5-fluoro-2-methylphenyl)-4-cyclopropyl-2-fluorobenzamide] here?
A: 90%

Q: And the “particle size of the DS in wet media milled before dilution for spray granulation” value [2]?
A: 123 nm

Q: What about the “Biopharmaceutics classification system Class” value [3] of the same compound?
A: Class 2

Q: What about the solubility ([3]; pH 1.2, simulated gastric fluid) of the same compound?
A: 3000 µg/mL (≈ 5910 µM)

Q: What about the solubility ([3]; pH 2, simulated gastric fluid) of the same compound?
A: 300 µg/mL (≈ 591 µM)

Q: What about the solubility ([3]; pH 3, aqueous buffer) of the same compound?
A: 3 µg/mL (≈ 5.91 µM)
